Counter-ions that a name gives are not always drawn.
Columns and labels:
[1] = alcohol trials; 50 mg/day; cited from earlier work
[2] = test system: alcohol-dependent individuals; test: 12-week randomized controlled pharmacotherapy trial of ondansetron by 5'-HTTLPR genotype (Example 3); assay type: in vivo, human; settings: for mean (SEM) DDD reduction from baseline across the treatment period: ondansetron 4 μg/kg b.i.d., 12 weeks
Excerpt: In a pre-planned interim analysis, data were examined for the 226 alcohol-dependent individuals (aged 18-65 years) enrolled into the 12-week randomized controlled pharmacotherapy trial to determine the effect of ondansetron on drinking among individuals who varied on allelic difference at the 5-HTT gene and age of alcoholism onset. All these individuals were enrolled at the University of Texas Health Science Center at San Antonio. Briefly, the study design was 2 (LL vs. LS/SS)×2 (early onset vs. late onset)×2 (ondansetron 4 μg/kg b.i.d. vs. placebo). The inferential results below are for the severity of drinking—drinks/drinking day (DDD).
Demographic data were that: 74% were male and 26% female; 48% were early-onset alcoholics and 52% late-onset alcoholics, and 20% were Hispanic and 80% White. There were no significant differences (P>0.05) on demographics between the treatment groups. Baseline mean (SD) DDD (past 90 days) were also similar for the ondansetron 4 μg/kg b.i.d. and placebo groups—9.83 (4.63) vs. 9.85 (4.49), respectively. The inferential analyses were conducted on all randomized subjects according to the intent-to-treat principle. The analytic plan was first to calculate the DDD in each week. We then used the difference between weekly DDD and the baseline DDD (in the past 90 days) as repeat measures. A mixed-model approach (SAS PROC MIXED) was used to study the effect of treatment, genotype (LL vs. LS/SS), treatment and genotype interaction, age, age of onset (early vs. late), gender, and age at onset of problem drinking, adjusting for the baseline DDD level. Also included is a random slope for time to study the variation in the time trend of the weekly DDD.

[3] = test system: alcohol-dependent men and women; test: 12-week treatment trial of ondansetron by 5'-HTTLPR and rs1042173 genotype (Example 4); assay type: in vivo, human
Method: 289 alcohol-dependent men and women enrolled in a 12-week treatment trial in which they received either ondansetron (4 μg/kg) or placebo. All subjects also received weekly cognitive behavioral therapy as their standardized psychosocial treatment. Genotyping was conducted on all subjects. Mixed-effects models were used to study the effect of treatment and genotype and their interaction for each of the primary drinking outcomes. The models included random intercept and random slope and were adjusted for covariates such as participants' average 90-day drinking levels prior to the study, age, gender, ethnicity (Caucasian and Hispanic), and center. A variance-components covariance matrix was used to model different variances for the intercept and slope and a covariance between them. Interactions of treatment, genotype, age, and center were first included in the models. They were excluded from the final models if not significant.

[4] = cited from earlier work
[5] = placebo vs. treatment, LL genotype
[6] = placebo vs. treatment, LS/SS genotype
[7] = treatment (ondansetron) group, LS/SS vs. LL

## O=C1CC[C@@]2(O)[C@H]3Cc4ccc(O)c5c4[C@@]2(CCN3CC2CC2)[C@H]1O5 [naltrexone, 17-(Cyclopropylmethyl)-4,5a-epoxy-3,14-dihydroxymorphinan-6-one hydrochloride]
[1]
  individuals unable to tolerate the dose: about 15%

## Cc1nccn1CC1CCc2c(c3ccccc3n2C)C1=O (centres unmarked) [ondansetron, 9-methyl-3-[(2-methyl-1H-imidazol-1-yl)methyl]-1,2,3,9-tetrahydrocarbazol-4-one]
[2]; LL genotype
  mean (SEM) DDD reduction from baseline across the treatment period: 5.70 (0.64) DDD
[2]; LS/SS genotype
  mean (SEM) DDD reduction from baseline across the treatment period: 3.45 (0.44) DDD
[2]; [5]
  Cohen's d: 0.08
  Estimate (cell contrast on DDD): 2.16 DDD
[2]; [6]
  Cohen's d: 0.04
  Estimate (cell contrast on DDD): −0.80 DDD
[2]; [7]
  Cohen's d: 0.10
  Estimate (cell contrast on DDD): 2.25 DDD
[3]; LL genotype, treatment group vs placebo group
  mean difference in DDD: −1.50 DDD
[3]; treated with ondansetron 4 μg/kg, LL vs LS/SS genotype
  mean difference in DDD: −1.41 DDD
[3]; treated with ondansetron 4 μg/kg, TT vs TG/GG genotype of rs1042173
  mean difference in DDD: −1.31 DDD

## CC1(C)O[C@@H]2[C@@H](CO[C@@]3(COS(N)(=O)=O)OC(C)(C)O[C@@H]23)O1 [topiramate, 2,3:4,5-Bis-O-(1-methylethylidene)-beta-D-fructopyranose sulfamate]
[4]; general population
  individuals reporting cognitive impairment: 2.4%
[4]; substance abuse field
  occurrence rate of cognitive impairment: about 18.7%

Source: patent US10619209B2, “Serotonin transporter gene and treatment of opioid-related disorders” (University of Virginia Patent Foundation, priority 2008, dated 2020)
